Where a name gives a salt, the structure may show the parent alone.
Assays:
[1] = Acute toxicity (LD50, single intravenous administration); parameters: species or system day mice; settings: mouse, in vivo, mice, single i.v.
Source text: In Table 15 are shown acute toxicity values (LD50, mg/kg) in day mice in the case of intravenously administering (once) each of the compounds of this invention in the form of preparations shown in the Preparation Examples shown in Table 16.

[2] = test system: P-388 leukemia cells; assay: Antitumor activity against P-388 leukemia cells (i.p. implanted, i.v. drug); assay type: in vivo, BDF1 mice; settings: Mus musculus, P388, iv, 720 h, i.v., 30-day observation, read-out: T/C of MST; for response vs control in vivo at 40 mg/kg: dose c: 40 mg/kg/d × 3 (days 1, 5, 9); for response vs control in vivo at 80 mg/kg: dose f: 80 mg/kg/d × 3 (days 1, 5, 9); for response vs control in vivo at 20 mg/kg: dose b: 20 mg/kg/d × 3 (days 1, 5, 9); for response vs control in vivo at 60 mg/kg: dose e: 60 mg/kg/d × 3 (days 1, 5, 9); for response vs control in vivo at 30 mg/kg: dose j: 30 mg/kg/d × 3 (days 1, 5, 9); for response vs control in vivo at 20 mg/kg/day: dose b': 20 mg/kg/d × 2 (days 1, 5); for response vs control in vivo at 40 mg/kg/day: dose c': 40 mg/kg/d × 2 (days 1, 5)
Method: BDF1 mice were implanted intraperitoneally with P-388 leukemia cells at a rate of 1×10^6 cells/mouse, and each drug to be tested was administered intravenously on the first, fifth and ninth days, or on the first and fifth days after the implantation. […] The T/C (%) was calculated based on the following equation: [formula]
The drugs tested were as follows: solutions prepared by dissolving each of compound Nos. 34, 36 and 43 to 46 in physiological saline; suspension or solutions prepared by dissolving each of compound Nos. 35, 38 and 49 to 55 in dimethylacetamide, followed by adding thereto a small amount of a surface active agent (e.g., Tween-80) and then physiological saline; and suspension or solutions prepared by mixing each of the other compounds and a small amount of a surface active agent (e.g., Tween-80), followed by adding thereto physiological saline.

SMILES: COC1C(O)C(C)OC(OC2C(Oc3cccc4c(OC(=O)Cc5cccs5)c5c(=O)oc6ccc(C)c7c(=O)oc(c34)c5c67)OC(C)C3OC(C)(C)OC32)C1O (centres unmarked) [Compound 13]
- LD50 ([1]; Preparation Example 3): ≥ 80 mg/kg
- response vs control in vivo at 40 mg/kg [2]: 134%
- response vs control in vivo at 80 mg/kg [2]: 182%

SMILES: COC1C(N)C(C)OC(OC2C(Oc3cccc4c(OC(=O)CCNC(=O)CN)c5c(=O)oc6ccc(C)c7c(=O)oc(c34)c5c67)OC(C)C3OC(c4ccccc4)OC32)C1O (centres unmarked) [Compound 46]
- LD50 ([1]; Preparation Example 8): ≥ 40 mg/kg
- response vs control in vivo at 40 mg/kg [2]: 148%

SMILES: COC1C(N)C(C)OC(OC2C(Oc3cccc4c(OC(=O)CCCCCNC(=O)C(F)(F)F)c5c(=O)oc6ccc(C)c7c(=O)oc(c34)c5c67)OC(C)C3OC(c4ccccc4)OC32)C1O (centres unmarked) [Compound 37, 6-O-(n-trifluoroacetyl-6-amino-n-hexanoyl)-3',4'-O-benzylidene-4"-epiamino-4"-deoxy-chartreusin hydrochloride]
- LD50 ([1]; Preparation Example 1): ≥ 40 mg/kg
- response vs control in vivo at 20 mg/kg [2]: 148%
- response vs control in vivo at 40 mg/kg [2]: 191%

SMILES: CCn1cc(C(=O)Oc2c3cccc(OC4OC(C)C5OC(c6ccccc6)OC5C4OC4OC(C)C(O)C(OC)C4O)c3c3oc(=O)c4c(C)ccc5oc(=O)c2c3c54)c(=O)c2cnc(N3CCCC3)nc21 (centres unmarked) [Compound 105]
- LD50 ([1]; Preparation Example 2): ≥ 60 mg/kg
- response vs control in vivo at 60 mg/kg [2]: 256%
- response vs control in vivo at 30 mg/kg [2]: 165%

SMILES: COC1C(N)C(C)OC(OC2C(Oc3cccc4c(OC(=O)CCN5CCCC5)c5c(=O)oc6ccc(C)c7c(=O)oc(c34)c5c67)OC(C)C3OC(c4ccccc4)OC32)C1O (stereo not drawn) [Compound 36, 6-O-(β-1-pyrrolidinylpropionyl)-3',4'-O-benzylidene-4"-epiamino-4"-deoxy-chartreusin dihydrochloride]
- LD50 ([1]; Preparation Example 8): ≥ 20 mg/kg
- response vs control in vivo at 20 mg/kg [2]: 168%

SMILES: COC1C(O)C(C)OC(OC2C(Oc3cccc4c(OC(=O)CCCCC5CCSS5)c5c(=O)oc6ccc(C)c7c(=O)oc(c34)c5c67)OC(C)C3OC(c4ccccc4)OC32)C1O (centres unmarked) [Compound 15]
- LD50 ([1]; Preparation Example 2): ≥ 40 mg/kg
- response vs control in vivo at 20 mg/kg [2]: 153%
- response vs control in vivo at 40 mg/kg [2]: 201%

SMILES: CCOCCC(=O)Oc1c2cccc(OC3OC(C)C4OC(c5ccccc5)OC4C3OC3OC(C)C(N)C(OC)C3O)c2c2oc(=O)c3c(C)ccc4oc(=O)c1c2c43 (centres unmarked) [Compound 35]
- LD50 ([1]; Preparation Example 6): ≥ 40 mg/kg
- response vs control in vivo at 20 mg/kg [2]: 188%
- response vs control in vivo at 40 mg/kg [2]: 244%

SMILES: COC1C(N)C(C)OC(OC2C(Oc3cccc4c(OC(=O)C(CN)C(C)C)c5c(=O)oc6ccc(C)c7c(=O)oc(c34)c5c67)OC(C)C3OC(c4ccccc4)OC32)C1O (centres unmarked) [Compound 45]
- LD50 ([1]; Preparation Example 8): ≥ 30 mg/kg
- response vs control in vivo at 30 mg/kg [2]: 131%

SMILES: CCn1cc(C(=O)Oc2c3cccc(OC4OC(C)C5OC(c6ccccc6)OC5C4OC4OC(C)C(O)C(OC)C4O)c3c3oc(=O)c4c(C)ccc5oc(=O)c2c3c54)c(=O)c2cnc(N3CCNCC3)nc21 (centres unmarked) [Compound 106]
- LD50 ([1]; Preparation Example 1): ≥ 60 mg/kg
- response vs control in vivo at 60 mg/kg [2]: 244%
- response vs control in vivo at 30 mg/kg [2]: 188%

SMILES: COC1C(O)C(C)OC(OC2C(Oc3cccc4c(OC(=O)C5CCN(C(=O)C(F)(F)F)CC5)c5c(=O)oc6ccc(C)c7c(=O)oc(c34)c5c67)OC(C)C3OC(C)(C)OC32)C1O (centres unmarked) [Compound 23]
- LD50 ([1]; Preparation Example 3): ≥ 40 mg/kg
- response vs control in vivo at 40 mg/kg [2]: 127%

SMILES: COC1C(O)C(C)OC(OC2C(Oc3cccc4c(OC(=O)c5ccc(C)s5)c5c(=O)oc6ccc(C)c7c(=O)oc(c34)c5c67)OC(C)C3OC(C)(C)OC32)C1O (centres unmarked) [Compound 12]
- LD50 ([1]; Preparation Example 3): ≥ 80 mg/kg
- response vs control in vivo at 80 mg/kg [2]: 194%

SMILES: COC1C(O)C(C)OC(OC2C(Oc3cccc4c(OC(=O)c5cc6cc(O)ccc6[nH]5)c5c(=O)oc6ccc(C)c7c(=O)oc(c34)c5c67)OC(C)C3OC(c4ccccc4)OC32)C1O (centres unmarked) [Compound 102]
- LD50 ([1]; Preparation Example 1): ≥ 60 mg/kg
- response vs control in vivo at 60 mg/kg [2]: 256%
- response vs control in vivo at 30 mg/kg [2]: 233%

SMILES: COC1C(O)C(C)OC(OC2C(Oc3cccc4c(OC(=O)CCc5ccc6c(c5)OCO6)c5c(=O)oc6ccc(C)c7c(=O)oc(c34)c5c67)OC(C)C3OC(c4ccccc4)OC32)C1O (centres unmarked) [Compound 22]
- LD50 ([1]; Preparation Example 2): ≥ 40 mg/kg
- response vs control in vivo at 20 mg/kg [2]: 142%
- response vs control in vivo at 40 mg/kg [2]: 222%

SMILES: COC1C(O)C(C)OC(OC2C(Oc3cccc4c(OC(=O)c5ccc[nH]5)c5c(=O)oc6ccc(C)c7c(=O)oc(c34)c5c67)OC(C)C3OC(c4ccccc4)OC32)C1O (centres unmarked) [Compound 1]
- LD50 ([1]; Preparation Example 1): ≥ 40 mg/kg
- response vs control in vivo at 20 mg/kg/day [2]: 154%
- response vs control in vivo at 40 mg/kg/day [2]: 188%

SMILES: COC1C(N)C(C)OC(OC2C(Oc3cccc4c(OC(=O)CC(C)NC(=O)C(F)(F)F)c5c(=O)oc6ccc(C)c7c(=O)oc(c34)c5c67)OC(C)C3OC(c4ccccc4)OC32)C1O (centres unmarked) [Compound 41]
- LD50 ([1]; Preparation Example 1): ≥ 40 mg/kg
- response vs control in vivo at 40 mg/kg [2]: 187%

SMILES: COC1C(N)C(C)OC(OC2C(Oc3cccc4c(OC(=O)CCNC=O)c5c(=O)oc6ccc(C)c7c(=O)oc(c34)c5c67)OC(C)C3OC(c4ccccc4)OC32)C1O (centres unmarked) [Compound 42]
- LD50 ([1]; Preparation Example 1): ≥ 40 mg/kg
- response vs control in vivo at 20 mg/kg [2]: 130%
- response vs control in vivo at 40 mg/kg [2]: 199%

SMILES: COC1C(O)C(C)OC(OC2C(Oc3cccc4c(OC(=O)c5ccoc5)c5c(=O)oc6ccc(C)c7c(=O)oc(c34)c5c67)OC(C)C3OC(C)(C)OC32)C1O (centres unmarked) [Compound 7]
- LD50 ([1]; Preparation Example 3): ≥ 80 mg/kg
- response vs control in vivo at 40 mg/kg [2]: 149%
- response vs control in vivo at 80 mg/kg [2]: 194%

SMILES: COC1C(N)C(C)OC(OC2C(Oc3cccc4c(OC(=O)c5cccc(C(F)(F)F)c5)c5c(=O)oc6ccc(C)c7c(=O)oc(c34)c5c67)OC(C)C3OC(c4ccccc4)OC32)C1O (centres unmarked) [Compound 53]
- LD50 ([1]; Preparation Example 6): ≥ 40 mg/kg
- response vs control in vivo at 20 mg/kg [2]: 131%
- response vs control in vivo at 40 mg/kg [2]: 165%

SMILES: COC1C(O)C(C)OC(OC2C(Oc3cccc4c(OC(=O)c5ccc(Br)o5)c5c(=O)oc6ccc(C)c7c(=O)oc(c34)c5c67)OC(C)C3OC(C)(C)OC32)C1O (centres unmarked) [Compound 8, 6-O-{2-(5-bromofuryl)-carbonyl}-3',4'-O-isopropylidene-chartreusin]
- LD50 ([1]; Preparation Example 3): ≥ 80 mg/kg
- response vs control in vivo at 80 mg/kg [2]: 178%

SMILES: COC1C(O)C(C)OC(OC2C(Oc3cccc4c(OC(=O)C=Cc5ccc6c(c5)OCO6)c5c(=O)oc6ccc(C)c7c(=O)oc(c34)c5c67)OC(C)C3OC(c4ccccc4)OC32)C1O (centres unmarked) [Compound 21]
- LD50 ([1]; Preparation Example 2): ≥ 40 mg/kg
- response vs control in vivo at 20 mg/kg [2]: 131%
- response vs control in vivo at 40 mg/kg [2]: 176%

SMILES: COC1C(N)C(C)OC(OC2C(Oc3cccc4c(OC(=O)CC(C)C)c5c(=O)oc6ccc(C)c7c(=O)oc(c34)c5c67)OC(C)C3OC(c4ccccc4)OC32)C1O (centres unmarked) [Compound 39, 6-O-(3-methyl-n-butyryl)-3',4',-O-benzylidene-4"-epiamino-4"-deoxy-chartreusin hydrochloride]
- LD50 ([1]; Preparation Example 9): ≥ 60 mg/kg
- response vs control in vivo at 40 mg/kg [2]: 207%
- response vs control in vivo at 60 mg/kg [2]: 240%

SMILES: COc1ccc2[nH]c(C(=O)Oc3c4cccc(OC5OC(C)C6OC(c7ccccc7)OC6C5OC5OC(C)C(O)C(OC)C5O)c4c4oc(=O)c5c(C)ccc6oc(=O)c3c4c65)cc2c1 (centres unmarked) [Compound 19, 6-O-{2-(5-methoxyindolyl)-carbonyl}-3',4'-O-benzylidene-chartreusin]
- LD50 ([1]; Preparation Example 2): ≥ 40 mg/kg
- response vs control in vivo at 20 mg/kg [2]: 131%
- response vs control in vivo at 40 mg/kg [2]: 165%

SMILES: COC1C(O)C(C)OC(OC2C(Oc3cccc4c(OC(=O)C5CC(=O)CC(C)(C)O5)c5c(=O)oc6ccc(C)c7c(=O)oc(c34)c5c67)OC(C)C3OC(c4ccccc4)OC32)C1O (centres unmarked) [Compound 32]
- LD50 ([1]; Preparation Example 2): ≥ 40 mg/kg
- response vs control in vivo at 20 mg/kg/day [2]: 185%
- response vs control in vivo at 40 mg/kg/day [2]: 213%

SMILES: COC1C(O)C(C)OC(OC2C(Oc3cccc4c(OC(=O)C=Cc5ccco5)c5c(=O)oc6ccc(C)c7c(=O)oc(c34)c5c67)OC(C)C3OC(C)(C)OC32)C1O (centres unmarked) [Compound 9]
- LD50 ([1]; Preparation Example 3): ≥ 80 mg/kg
- response vs control in vivo at 80 mg/kg [2]: 194%

SMILES: COC1C(N)C(C)OC(OC2C(Oc3cccc4c(OC(=O)C5CC5C)c5c(=O)oc6ccc(C)c7c(=O)oc(c34)c5c67)OC(C)C3OC(c4ccccc4)OC32)C1O (centres unmarked) [Compound 49]
- LD50 ([1]; Preparation Example 6): ≥ 40 mg/kg
- response vs control in vivo at 40 mg/kg/day [2]: 153%

SMILES: COC1C(O)C(C)OC(OC2C(Oc3cccc4c(OC(=O)c5cc6ccccc6[nH]5)c5c(=O)oc6ccc(C)c7c(=O)oc(c34)c5c67)OC(C)C3OC(c4cccc(F)c4)OC32)C1O (centres unmarked) [Compound 30, 6-O-(2-indolyl-carbonyl)-3',4'-O-(m-fluorobenzylidene)-chartreusin]
- LD50 ([1]; Preparation Example 2): ≥ 80 mg/kg
- response vs control in vivo at 80 mg/kg [2]: 142%

SMILES: COC1C(O)C(C)OC(OC2C(Oc3cccc4c(OC(=O)c5cc(-c6ccccc6)nc6ccccc56)c5c(=O)oc6ccc(C)c7c(=O)oc(c34)c5c67)OC(C)C3OC(c4ccccc4)OC32)C1O (centres unmarked) [Compound 28]
- LD50 ([1]; Preparation Example 1): ≥ 20 mg/kg
- response vs control in vivo at 20 mg/kg [2]: 197%
- response vs control in vivo at 80 mg/kg [2]: 192%

From US4927919A, “Chartreusin derivatives and salts thereof” (Ishihara Sangyo Kaisha, Ltd., priority 1985, dated 1990)
